Reference: patent publication US20240383898A1, “PYRIDO RING COMPOUND, PREPARATION METHOD THEREFOR, INTERMEDIATE, COMPOSITION, AND APPLICATION” (YIYOU BIOTECH (SHANGHAI) CO., LTD, priority 2021, published 2024)

How the values were obtained:
JAK1 = biological target: T1, JAK1 (Homo sapiens, UniProt P23458); test: In vitro activity test of JAK1 kinase (Caliper EZ Reader conversion assay); format: biochemical; conditions: enzyme activity, 10 concentrations from 1000 nM, 3-fold dilution
T1 construct: purchased Carna 08-114
Method: (§1) In Vitro Activity Test of JAK1 and JAK2 Kinases
(§2) • Centrifuge (manufacturer: Eppendorf, model: 5430) • ELISA Instrument (Manufacturer: Perkin Elmer, Model: Caliper EZ Reader 1I) • Echo 550 (Manufacturer: Labcyte, Model: Echo 550)
(§3) (1) Prepare 1 Kinase buffer.
(§4) (2) Compound concentration gradient preparation: The test compound was tested at 1000 nM, 3-fold dilution, 10 concentrations, two-well assay, and configured to a 100-fold final concentration in a 384-well plate. 250 nl of the test compound was then transferred to the 384 reaction plate using Echo550. 250 nl of 100% DMSO was added to each of the negative and positive control wells.
(§5) (3) Prepare 2.5 times the final concentration of kinase solution with 1×Kinase buffer.
(§6) (4) Add 10 μL of 2.5 times the final concentration of kinase solution to the compound wells and 10 μL of 1×Kinase buffer to the negative control wells.
(§7) (5) Centrifuge at 1000 rpm for 30 seconds, mix well with shaking, and incubate at room temperature for 10 minutes.
(§8) (6) Prepare a 25/15-fold final concentration of mixture of ATP and Kinase substrate with 1×Kinase buffer.
(§9) (7) Add 15 μL of a mixture of 25/15 times the final concentration of ATP and substrate to start the reaction.
(§10) (8) Centrifuge the 384-well plate at 1000 rpm for 30 seconds, mix well with shaking, and incubate at room temperature for an appropriate amount of time.
(§11) (9) Stop the kinase reaction by adding 30 μL of termination solution, centrifuge at 1000 rpm for 30 seconds, and mix well with shaking.
(§12) (10) Read the conversion rate with Caliper EZ Reader.
(§13) where: Conversion %_sample is the conversion rate reading of the sample-, Conversion %_min: the average value of the negative control wells, representing the conversion reading of the wells without enzyme activity: Conversion %-max: the average value of the positive control wells, representing the conversion reading of the wells without compound inhibition.
(§14) The log value of concentration was used as the X-axis and the percentage inhibition as the Y-axis, and the function of the analytical software GraphPad Prism 5; log(inhibitor) vs. response -Variable slope, was used to lit dose-effect curves to obtain the IC50) values of each compound on enzyme activity.
(§15) The formula is Y=Bottom+(Top-Bottom)/(1+10^((LogIC50-X)*HillSlope))
(§16) The 1C50 data are specified in Table 1.

JAK2 = biological target: T2, JAK2 (Homo sapiens, UniProt O60674); test: In vitro activity test of JAK2 kinase (Caliper EZ Reader conversion assay); format: biochemical; conditions: enzyme activity, 10 concentrations from 1000 nM, 3-fold dilution
T2 construct: purchased Carna 08-045
Method: as §1, §2, §3, §4, §5, §6, §7, §8, §9, §10, §11, §12, §13, §14, §15, §16

T1 sequence (P23458 whole entry, species assumed): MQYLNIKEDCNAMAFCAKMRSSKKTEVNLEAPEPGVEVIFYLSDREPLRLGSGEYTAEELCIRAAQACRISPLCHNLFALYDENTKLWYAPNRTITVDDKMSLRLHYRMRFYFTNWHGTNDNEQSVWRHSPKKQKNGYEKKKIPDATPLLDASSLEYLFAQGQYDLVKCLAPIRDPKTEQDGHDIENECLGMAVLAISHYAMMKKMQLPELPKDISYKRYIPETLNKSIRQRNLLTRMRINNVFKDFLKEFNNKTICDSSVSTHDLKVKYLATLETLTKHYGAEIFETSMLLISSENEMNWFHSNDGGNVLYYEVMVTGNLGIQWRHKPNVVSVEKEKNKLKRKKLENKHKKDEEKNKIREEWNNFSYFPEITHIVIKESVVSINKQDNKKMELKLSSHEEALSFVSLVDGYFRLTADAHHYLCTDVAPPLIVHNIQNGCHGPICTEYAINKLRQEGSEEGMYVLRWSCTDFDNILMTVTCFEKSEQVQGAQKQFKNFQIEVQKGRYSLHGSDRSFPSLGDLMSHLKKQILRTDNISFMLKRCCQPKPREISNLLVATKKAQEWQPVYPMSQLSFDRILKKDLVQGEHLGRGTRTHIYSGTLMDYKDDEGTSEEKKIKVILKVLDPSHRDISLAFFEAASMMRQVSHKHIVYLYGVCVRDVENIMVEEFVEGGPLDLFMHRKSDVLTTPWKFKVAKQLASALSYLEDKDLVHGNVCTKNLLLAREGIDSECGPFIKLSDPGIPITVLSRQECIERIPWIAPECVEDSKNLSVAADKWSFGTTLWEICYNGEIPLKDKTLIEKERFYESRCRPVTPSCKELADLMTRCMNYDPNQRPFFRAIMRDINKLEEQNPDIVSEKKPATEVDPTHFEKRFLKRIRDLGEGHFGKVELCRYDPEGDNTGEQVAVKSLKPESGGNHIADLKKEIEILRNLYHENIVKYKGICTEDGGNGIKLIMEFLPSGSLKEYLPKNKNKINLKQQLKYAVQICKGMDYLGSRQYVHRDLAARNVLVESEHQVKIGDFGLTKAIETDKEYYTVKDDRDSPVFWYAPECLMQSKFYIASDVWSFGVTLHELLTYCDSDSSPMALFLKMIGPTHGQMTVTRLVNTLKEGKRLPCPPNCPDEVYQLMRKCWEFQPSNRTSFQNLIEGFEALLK
T2 sequence (O60674 whole entry, species assumed): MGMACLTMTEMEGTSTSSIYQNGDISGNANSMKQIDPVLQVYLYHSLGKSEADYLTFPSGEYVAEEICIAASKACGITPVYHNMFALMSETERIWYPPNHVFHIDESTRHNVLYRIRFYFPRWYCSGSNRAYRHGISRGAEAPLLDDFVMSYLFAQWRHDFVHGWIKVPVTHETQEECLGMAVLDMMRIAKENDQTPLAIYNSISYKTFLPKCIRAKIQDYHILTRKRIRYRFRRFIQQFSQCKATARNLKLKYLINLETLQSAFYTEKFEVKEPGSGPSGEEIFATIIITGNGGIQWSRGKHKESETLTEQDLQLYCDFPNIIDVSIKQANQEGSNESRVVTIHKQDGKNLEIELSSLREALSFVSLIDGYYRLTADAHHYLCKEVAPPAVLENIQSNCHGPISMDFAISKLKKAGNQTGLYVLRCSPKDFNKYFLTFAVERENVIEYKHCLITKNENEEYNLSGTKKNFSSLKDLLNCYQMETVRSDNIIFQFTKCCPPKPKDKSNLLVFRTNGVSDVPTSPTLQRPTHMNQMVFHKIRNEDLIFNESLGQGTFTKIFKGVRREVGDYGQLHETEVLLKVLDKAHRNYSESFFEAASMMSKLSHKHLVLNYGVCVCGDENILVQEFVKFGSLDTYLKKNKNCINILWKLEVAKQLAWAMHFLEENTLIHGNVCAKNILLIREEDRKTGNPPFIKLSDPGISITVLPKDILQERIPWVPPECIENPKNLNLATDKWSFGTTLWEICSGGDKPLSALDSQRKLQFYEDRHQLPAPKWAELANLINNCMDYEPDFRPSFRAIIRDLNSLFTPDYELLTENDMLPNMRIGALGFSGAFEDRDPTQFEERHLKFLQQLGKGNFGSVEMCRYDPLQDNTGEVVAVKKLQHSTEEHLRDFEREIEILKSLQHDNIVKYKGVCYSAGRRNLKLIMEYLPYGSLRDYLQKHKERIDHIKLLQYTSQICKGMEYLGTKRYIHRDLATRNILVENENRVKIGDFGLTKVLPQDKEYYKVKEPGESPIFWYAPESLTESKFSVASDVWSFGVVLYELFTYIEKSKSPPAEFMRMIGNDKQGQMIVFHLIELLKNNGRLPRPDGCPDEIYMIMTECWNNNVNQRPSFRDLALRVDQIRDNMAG

Row | IC50 (JAK1) [nM] | IC50 (JAK2) [nM] | Compound
1 | 100 to 1000 | < 10 | CCS(=O)(=O)N1CC(CC#N)(n2cc(-n3c(-c4ccc(C)o4)nc4cnc5[nH]ccc5c43)cn2)C1 [LXS77, 2-(1-(ethylsulfonyl)-3-(4-(2-(5-methylfuran-2-yl)imidazolyl[4,5-d]pyrrolo[2,3-b]pyridin-1(6H)-yl)-1H-pyrazol-1-yl)azetidin-3-yl) acetonitrile]
2 | 10 to 100 | 10 to 100 | Cc1ncc(-c2nc3cnc4[nH]ccc4c3n2C2CCC(C#N)CC2)s1 (stereo in doubt) [LXS26, trans-4-(2-(2-Methylthiazol-5-yl)imidazo[4,5-d]pyrrolo[2,3-b]pyridin-1(6H)-yl)cyclohexanecarbonitrile]
3 | 100 to 1000 | 100 to 1000 | C=CC(=O)N1CCC(n2c(-c3ncc[nH]3)nc3cnc4[nH]ccc4c32)C1 (stereo in doubt) [LXS25, (R)-1-(3-(2-(1H-imidazol-2-yl)imidazo[4,5-d]pyrrolo[2,3-b]pyridin-1(6H)-yl)pyrrolidin-1-yl)prop-2-en-1-one]
4 | < 10 | 100 to 1000 | CCC(C(=O)NCC(F)(F)F)N1CC[C@H](n2c([C@@H](C)O)nc3cnc4[nH]ccc4c32)C1 (stereo partly drawn) [LXS76, 2-((S)-3-(2-((R)-1-Hydroxyethyl)imidazo[4,5-d]pyrrolo[2,3-b]pyridin-1(6H)-yl)pyrrolidin-1-yl)-N-(2,2,2-trifluoroethyl)butanamide]
5 | 10 to 100 | 10 to 100 | N#CCCn1cc(-n2c(-c3ccccc3F)nc3cnc4[nH]ccc4c32)cn1 [LXS83, 3-(4-(2-(2-Fluorophenyl)imidazo[4,5-d]pyrrolo[2,3-b]pyridin-1(6H)-yl)-1H-pyrazol-1-yl)propanenitrile]
6 | 10 to 100 | 10 to 100 | CS(=O)(=O)c1ccc(C2Nc3cnc4[nH]ccc4c3N2C2CCN(CCC#N)C2)cc1 (stereo not drawn) [LXS60, 3-(3-(2-(4-(Methylsulfonyl)phenyl)-2,3-dihydroimidazo[4,5-d]pyrrolo[2,3-b]pyridin-1(6H)-yl)pyrrolidin-1-yl)propanenitrile]
7 | 10 to 100 | 100 to 1000 | N#C[C@H]1CC[C@H](n2c(-c3ccc(F)cc3)nc3cnc4[nH]ccc4c32)CC1 (stereo in doubt) [LXS43, trans-4-(2-(4-Fluorophenyl)imidazo[4,5-d]pyrrolo[2,3-b]pyridin-1(6H)-yl)cyclohexanecarbonitrile]
8 | 10 to 100 | 100 to 1000 | C[C@@H](O)c1nc2cnc3[nH]ccc3c2n1[C@H]1CCN(CCC#N)C1 [LXS59, 3-((S)-3-(2-((R)-1-hydroxyethyl)imidazo[4,5-d]pyrrolo[2,3-b]pyridin-1(6H)-yl)pyrrolidin-1-yl)propanenitrile]
9 | 100 to 1000 | 100 to 1000 | N#Cc1ccc(-n2c(-c3ccc(CO)o3)nc3cnc4[nH]ccc4c32)cc1 [LXS55, 4-(2-(5-(Hydroxymethyl)furan-2-yl)imidazo[4,5-d]pyrrolo[2,3-b]pyridin-1(6H)-yl)benzonitrile]
10 | 10 to 100 | 10 to 100 | N#C[C@H]1CC[C@H](n2c(-c3ccc(O)cc3O)nc3cnc4[nH]ccc4c32)CC1 (stereo in doubt) [LXS36, trans-4-(2-(2,4-Dihydroxyphenyl)imidazo[4,5-d]pyrrolo[2,3-b]pyridin-1(6H)-yl)cyclohexanecarbonitrile]
11 | 100 to 1000 | 100 to 1000 | CS(=O)(=O)c1ccc(C2Nc3cnc4[nH]ccc4c3N2c2ccc(C#N)cc2)cc1 (stereo not drawn) [LXS57, 4-(2-(4-(Methylsulfonyl)phenyl)-2,3-dihydroimidazo[4,5-d]pyrrolo[2,3-b]pyridin-1(6H)-yl)benzonitrile]
12 | 100 to 1000 | < 10 | N#CCCn1cc(-n2cnc3cnc4[nH]ccc4c32)cn1 [LXS79, 3-(4-(Imidazo[4,5-d]pyrrolo[2,3-b]pyridin-1(6H)-yl)-1H-pyrazol-1-yl)propanenitrile]
13 | 10 to 100 | 10 to 100 | O=C(C1CC1)N1CCC(n2c(-c3ccc(CO)o3)nc3cnc4[nH]ccc4c32)C1 (stereo not drawn) [LXS17, Cyclopropyl(3-(2-(5-(hydroxymethyl)furan-2-yl)imidazo[4,5-d]pyrrolo[2,3-b]pyridin-1(6H)-yl)pyrrolidin-1-yl) methanone]
14 | < 10 | 100 to 1000 | C[C@@H](O)c1nc2cnc3[nH]ccc3c2n1[C@H]1CCN(CCCCCF)C1 [LXS73, (R)-1-(1-((S)-1-(5-fluoropentyl)pyrrolidin-3-yl)-1,6-dihydroimidazo[4,5-d]pyrrolo[2,3-b]pyridin-2-yl) ethanol]
15 | 100 to 1000 | 100 to 1000 | CCCS(=O)(=O)N1CCC(n2c(-c3ccc(O)cc3O)nc3cnc4[nH]ccc4c32)C1 (stereo not drawn) [LXS31, 4-(1-(1-(Propylsulfonyl)pyrrolidin-3-yl)-1,6-dihydroimidazo[4,5-d]pyrrolo[2,3-b]pyridin-2-yl)benzene-1,3-diol]
16 | < 10 | 100 to 1000 | C[C@@H](O)c1nc2cnc3[nH]ccc3c2n1[C@@H]1CN(CCCC(F)(F)F)C[C@H]1F [LXS87, (R)-1-(1-((3R,4R)-4-fluoro-1-(4,4,4-trifluorobutyl)pyrrolidin-3-yl)-1,6-dihydroimidazo[4,5-d]pyrrolo[2,3-b]pyridin-2-yl)ethan-1-ol]
17 | 10 to 100 | 10 to 100 | C[C@@H](O)c1nc2cnc3[nH]ccc3c2n1[C@@H]1CCN(CCC#N)C1 [LXS58, 3-((R)-3-(2-((R)-1-Hydroxyethyl)imidazo[4,5-d]pyrrolo[2,3-b]pyridin-1(6H)-yl)pyrrolidin-1-yl)propanenitrile]
18 | 100 to 1000 | 100 to 1000 | C[C@@H](O)c1nc2cnc3[nH]ccc3c2n1C1CCN(C(=O)c2ccc(F)cc2)C1 (stereo partly drawn) [LXS03, (4-Fluorophenyl)(3-(2-((R)-1-Hydroxyethyl)imidazo[4,5-d]pyrrolo[2,3-b]pyridin-1(6H)-yl)pyrrolidin-1-yl)methanone]
19 | 10 to 100 | 10 to 100 | CS(=O)(=O)c1ccc(C2Nc3cnc4[nH]ccc4c3N2c2cnn(CCC#N)c2)cc1 (stereo not drawn) [LXS67, 3-(4-(2-(4-(Methylsulfonyl)phenyl)-2,3-dihydroimidazo[4,5-d]pyrrolo[2,3-b]pyridin-1(6H)-yl)-1H-pyrazol-1-yl)propanenitrile]
20 | 10 to 100 | < 10 | N#CCCn1cc(-n2c(-c3ccc(CO)o3)nc3cnc4[nH]ccc4c32)cn1 [LXS46, 3-(4-(2-(5-(Hydroxymethyl)furan-2-yl)imidazo[4,5-d]pyrrolo[2,3-b]pyridin-1(6H)-yl)-1H-pyrazol-1-yl)propanenitrile]
21 | 100 to 1000 | > 1000 | C[C@@H](O)c1nc2cnc3[nH]ccc3c2n1C1CCN(S(=O)(=O)c2ccc3ccccc3c2)C1 (stereo partly drawn) [LXS10, (1R)-1-(1-(1-(naphthalen-2-ylsulfonyl)pyrrolidin-3-yl)-1,6-dihydroimidazo[4,5-d]pyrrolo[2,3-b]pyridin-2-yl)ethan-1-ol]
22 | 100 to 1000 | 10 to 100 | N#CCCn1cc(-n2c(-c3cccs3)nc3cnc4[nH]ccc4c32)cn1 [LXS106, 3-(4-(2-(Thiophen-2-yl)imidazo[4,5-d]pyrrolo[2,3-b]pyridin-1(6H)-yl)-1H-pyrazol-1-yl)propanenitrile]
23 | 100 to 1000 | 10 to 100 | CCCCS(=O)(=O)N1CC(CC#N)(n2cc(-n3c(-c4ccc(CO)o4)nc4cnc5[nH]ccc5c43)cn2)C1 [LXS15, 2-(1-(butylsulfonyl)-3-(4-(2-(5-(hydroxymethyl)furan-2-yl)imidazo[4,5-d]pyrrolo[2,3-b]pyridin-1(6H)-yl)-1H-pyrazol-1-yl)azetidin-3-yl)acetonitrile]
24 | 10 to 100 | 100 to 1000 | C[C@@H](O)c1nc2cnc3[nH]ccc3c2n1C1CCN(CC#N)C1 (stereo partly drawn) [LXS48, 2-(3-(2-((R)-1-Hydroxyethyl)imidazo[4,5-d]pyrrolo[2,3-b]pyridin-1(6H)-yl)pyrrolidin-1-yl)acetonitrile]
25 | < 10 | 100 to 1000 | C[C@@H](O)c1nc2cnc3[nH]ccc3c2n1[C@H]1C[C@H](CO)N(CCCC(F)(F)F)C1 [LXS91, (R)-1-(1-((3S,5R)-5-(hydroxymethyl)-1-(4,4,4-trifluorobutyl)pyrrolidin-3-yl)-1,6-dihydroimidazo[4,5-d]pyrrolo[2,3-b]pyridin-2-yl)ethan-1-ol]
26 | 10 to 100 | 10 to 100 | C[C@@H](O)c1nc2cnc3[nH]ccc3c2n1[C@@H]1CN(CCCC#N)CC12CC2 [LXS69, 4-((S)-7-(2-((R)-1-Hydroxyethyl)imidazo[4,5-d]pyrrolo[2,3-b]pyridin-1(6H)-yl)-5-azaspiro[2,4]hept-5-yl)butanenitrile]
27 | 10 to 100 | 10 to 100 | N#CCCn1cc(-n2c(-c3cccc(O)c3)nc3cnc4[nH]ccc4c32)cn1 [LXS82, 3-(4-(2-(3-Hydroxyphenyl)imidazo[4,5-d]pyrrolo[2,3-b]pyridin-1(6H)-yl)-1H-pyrazol-1-yl)propanenitrile]
